Each structure is given as a SMILES string. The source made the active and inactive calls. The rule behind the calls is not given here.

Broadly, the inhibition is the change of the read-out against control, counted positive when it falls. The term IC50 denotes the concentration at which inhibition is half-maximal. The DC50 is the midpoint of the concentration-degradation curve.

One experiment concerns MDA-MB-468. In words: Induction of molecular glue effect mediated DNMT1 degradation in human MDA-MB-468 cells assessed as reduction in DNMT1 protein level at 100 nM preincubated with MLN4924 for 2 hrs followed by compound addition and measured after 24 hrs by Western blot analysis. Type of experiment: cell-based. On the technique in general: In western blotting, separated proteins are transferred to a membrane and probed.

For experiment [1], the target named is DNA (cytosine-5)-methyltransferase 3A (Homo sapiens) (UniProt Q9Y6K1). The experiment in a line: Inhibition of human DNMT3A using lambda DNA and SAM as substrate at 1 uM by radioisotope-based MT HotSpot assay relative to control.
Chain of DNA (cytosine-5)-methyltransferase 3A (Homo sapiens) (Q9Y6K1 whole entry, looked up, the tested form may be a part): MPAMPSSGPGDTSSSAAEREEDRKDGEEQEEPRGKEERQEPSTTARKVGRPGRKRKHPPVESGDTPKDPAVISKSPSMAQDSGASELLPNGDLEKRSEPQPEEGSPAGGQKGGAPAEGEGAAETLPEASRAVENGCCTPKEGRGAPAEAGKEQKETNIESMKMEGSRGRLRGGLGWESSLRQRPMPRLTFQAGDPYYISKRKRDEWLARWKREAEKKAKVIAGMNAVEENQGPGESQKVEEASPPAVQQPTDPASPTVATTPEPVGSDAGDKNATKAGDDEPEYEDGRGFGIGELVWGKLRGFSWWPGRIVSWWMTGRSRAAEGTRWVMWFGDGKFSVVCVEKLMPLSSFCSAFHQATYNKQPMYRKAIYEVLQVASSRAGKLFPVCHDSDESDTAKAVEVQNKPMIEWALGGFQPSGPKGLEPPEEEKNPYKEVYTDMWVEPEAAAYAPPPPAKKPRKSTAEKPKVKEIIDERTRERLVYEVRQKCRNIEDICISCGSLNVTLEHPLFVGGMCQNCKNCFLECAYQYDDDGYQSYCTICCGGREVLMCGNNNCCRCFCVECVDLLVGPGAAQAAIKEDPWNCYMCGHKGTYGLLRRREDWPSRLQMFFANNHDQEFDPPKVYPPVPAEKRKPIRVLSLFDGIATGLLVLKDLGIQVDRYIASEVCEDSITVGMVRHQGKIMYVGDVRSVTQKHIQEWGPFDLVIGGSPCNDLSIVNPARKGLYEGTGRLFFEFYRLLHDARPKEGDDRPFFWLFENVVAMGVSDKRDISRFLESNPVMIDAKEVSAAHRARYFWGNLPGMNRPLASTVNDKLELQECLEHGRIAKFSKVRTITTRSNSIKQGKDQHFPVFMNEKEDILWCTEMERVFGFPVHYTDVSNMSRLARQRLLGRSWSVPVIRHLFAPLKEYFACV
For experiment [2], the target named is DNA (cytosine-5)-methyltransferase 1 (Homo sapiens, UniProt P26358). In words: Inhibition of human DNMT1 (350 to 1600 residues) extracted from Escherichia coli BL21 (DE3)-codon plus-RIL cells in presence of SAM and hemimethylated DNA.
Chain of DNA (cytosine-5)-methyltransferase 1 (P26358 whole entry, the tested form may be a part): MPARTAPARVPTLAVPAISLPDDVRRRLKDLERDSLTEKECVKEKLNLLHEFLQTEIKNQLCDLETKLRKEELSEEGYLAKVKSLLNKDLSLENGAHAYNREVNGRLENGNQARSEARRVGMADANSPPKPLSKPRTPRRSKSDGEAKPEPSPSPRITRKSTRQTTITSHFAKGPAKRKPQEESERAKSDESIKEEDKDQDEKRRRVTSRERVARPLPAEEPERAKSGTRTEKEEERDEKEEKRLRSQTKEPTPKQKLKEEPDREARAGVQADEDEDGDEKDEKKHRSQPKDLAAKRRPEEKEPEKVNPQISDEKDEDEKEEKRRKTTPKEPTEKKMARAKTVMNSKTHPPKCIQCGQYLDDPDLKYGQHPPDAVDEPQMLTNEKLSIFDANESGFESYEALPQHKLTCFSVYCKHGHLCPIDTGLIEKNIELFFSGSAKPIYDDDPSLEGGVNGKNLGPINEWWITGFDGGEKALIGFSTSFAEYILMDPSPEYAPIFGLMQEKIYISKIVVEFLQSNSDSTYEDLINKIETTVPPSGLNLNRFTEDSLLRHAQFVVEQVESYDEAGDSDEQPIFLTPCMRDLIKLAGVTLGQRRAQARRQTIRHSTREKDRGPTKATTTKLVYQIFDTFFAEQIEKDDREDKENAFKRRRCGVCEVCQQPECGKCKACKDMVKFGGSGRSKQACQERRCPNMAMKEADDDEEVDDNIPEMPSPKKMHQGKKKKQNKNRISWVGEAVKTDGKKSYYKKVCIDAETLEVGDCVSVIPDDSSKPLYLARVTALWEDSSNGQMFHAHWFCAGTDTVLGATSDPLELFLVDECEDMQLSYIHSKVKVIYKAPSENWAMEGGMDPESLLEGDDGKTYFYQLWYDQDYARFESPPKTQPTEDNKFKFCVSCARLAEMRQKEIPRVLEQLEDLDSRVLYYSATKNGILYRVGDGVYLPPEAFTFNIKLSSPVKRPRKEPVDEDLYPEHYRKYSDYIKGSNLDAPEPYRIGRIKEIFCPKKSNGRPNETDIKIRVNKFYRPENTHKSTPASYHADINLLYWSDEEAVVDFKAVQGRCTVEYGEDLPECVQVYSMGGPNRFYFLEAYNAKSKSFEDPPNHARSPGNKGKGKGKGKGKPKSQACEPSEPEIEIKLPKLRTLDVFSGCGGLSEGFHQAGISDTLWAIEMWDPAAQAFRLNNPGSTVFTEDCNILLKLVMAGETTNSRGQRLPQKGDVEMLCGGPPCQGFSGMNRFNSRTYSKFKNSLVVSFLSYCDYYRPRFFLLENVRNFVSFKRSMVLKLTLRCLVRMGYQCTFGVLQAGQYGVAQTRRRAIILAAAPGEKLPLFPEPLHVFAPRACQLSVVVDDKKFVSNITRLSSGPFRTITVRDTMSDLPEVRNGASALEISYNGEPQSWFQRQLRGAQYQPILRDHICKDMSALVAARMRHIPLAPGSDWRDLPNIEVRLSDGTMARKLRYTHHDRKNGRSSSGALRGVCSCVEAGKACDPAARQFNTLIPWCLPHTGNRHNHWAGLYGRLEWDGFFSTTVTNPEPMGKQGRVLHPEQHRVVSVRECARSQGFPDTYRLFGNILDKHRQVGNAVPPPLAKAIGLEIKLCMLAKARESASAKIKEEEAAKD
The subject of experiment [3] is HCT-116. The experiment in a line: Induction of molecular glue effect mediated DNMT1 degradation in human HCT-116 cells transfected with NEDD4 siRNA assessed as reduction in DNMT1 protein level at 100 nM measured after 24 hrs by Western blot analysis. It is filed as cell-based.
Experiment [4] relates to HCT-116. The experiment in a line: Effect on DNMT1 mRNA level in human HCT-116 cells at 500 nM incubated for 24 hrs by RT-qPCR analysis. It is filed as functional, cell-based. (In general: Real-time PCR tracks product formation cycle by cycle.)
Experiment [5] has as its system HCT-116. In words: Induction of molecular glue effect mediated DNMT1 degradation in human HCT-116 cells assessed as reduction in DNMT1 protein level at 500 nM measured after 24 hrs by Western blot analysis relative to control. It is filed as cell-based. Also on record: scale not given: the % may be the effect or the level left.
The nature of experiment [6]: Induction of molecular glue effect mediated DNMT1 degradation in human NCI-H1299 cells assessed as reduction in DNMT1 protein level incubated for 24 hrs by Western blot analysis. It is filed as cell-based. As to conditions: NCI-H1299, 24 h.
Experiment [7] concerns HCT-116. In words: Induction of molecular glue effect mediated DNMT1 degradation in human HCT-116 cells assessed as reduction in DNMT1 protein level at 100 nM preincubated with TAK-243 for 2 hrs followed by compound addition and measured after 24 hrs by Western blot analysis. Type of experiment: cell-based.
For experiment [8], the system named is HCT-116. In words: Induction of molecular glue effect mediated DNMT1 degradation in human HCT-116 cells assessed as reduction in DNMT1 protein level at 100 nM preincubated with MLN4924 for 2 hrs followed by compound addition and measured after 24 hrs by Western blot analysis. It is filed as cell-based.
Experiment [9] deals with HCT-116. The experiment in a line: Induction of molecular glue effect mediated DNMT1 degradation in human HCT-116 cells assessed as reduction in DNMT1 protein level at 100 nM preincubated with TRAF6 inhibitor C25-140 for 2 hrs followed by compound addition and measured after 24 hrs by Western blot analysis. Type of experiment: cell-based.
Experiment [10] has as its target Protein arginine N-methyltransferase 6 (Homo sapiens) (UniProt Q96LA8). In words: Inhibition of human PRMT6 using GST-GAR and SAM as substrate at 1 uM by radioisotope-based MT HotSpot assay relative to control.
Experiment [11] relates to HCT-116. The experiment in a line: Induction of molecular glue effect mediated DNMT3A degradation in human HCT-116 cells assessed as reduction in DNMT3A protein level at 500 nM incubated for 24 hrs by Western blot analysis. Type of experiment: cell-based.

Chain of Protein arginine N-methyltransferase 6 (Homo sapiens) (Q96LA8 whole entry, looked up): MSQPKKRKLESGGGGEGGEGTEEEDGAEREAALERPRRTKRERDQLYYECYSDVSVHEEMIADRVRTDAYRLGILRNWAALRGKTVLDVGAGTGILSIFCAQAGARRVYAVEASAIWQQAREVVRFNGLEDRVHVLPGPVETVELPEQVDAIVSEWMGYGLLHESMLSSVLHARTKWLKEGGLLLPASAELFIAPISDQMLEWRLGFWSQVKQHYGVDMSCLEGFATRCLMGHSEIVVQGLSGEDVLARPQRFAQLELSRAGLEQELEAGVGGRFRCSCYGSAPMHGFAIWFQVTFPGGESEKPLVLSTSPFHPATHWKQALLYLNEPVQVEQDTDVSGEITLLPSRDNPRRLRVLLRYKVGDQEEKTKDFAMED

For the molecule `CCc1c(C#N)c(SC(C(N)=O)c2ccccc2)nc(N(C)CC(=O)NC)c1C#N` (configuration not stated), the result in the experiment on MDA-MB-468, in the experiment on HCT-116 [3], in the experiment with HCT-116 [8] and in the experiment on HCT-116 [9] was Active. Further, the inhibition in experiment [1] and in [10] was under 20% each time. For the same molecule, the IC50 in experiment [2] is 0.43 µM. In addition, the result with HCT-116 [4], in the experiment on HCT-116 [7] and with HCT-116 [11] was inactive. Also, in the experiment on HCT-116 [5], the Activity is 100%. Further, the DC50 in [6] stood at 0.086 µM.
